Source: EP1495132B1, “SYSTEMIC MARKER FOR MONITORING ANTI-INFLAMMATORY AND ANTIOXIDANT ACTIONS OF THERAPEUTIC AGENTS” (priority 2002, dated 2003)
Values joined by “and” are separate entries in the source; they are usually repeats but may differ in a detail not shown here. Equal entries are not always repeated.

Columns and labels:
Human neutrophils = experiment: Neutrophil-dependent initiation of lipid peroxidation of endogenous plasma lipids (PMA-activated neutrophils, LC/ESI/MS/MS); type: cell-based; details: 50% plasma, 2 h, 37° C, 1 mM NaN3, 300 nM catalase, 100 µM methionine, 100 µM ascorbate, 10 µg/ml SOD
Procedure: (§1) Neutrophils (1×10^6/ml) isolated from normal and MPO-deficient individuals were incubated at 37° C in HBSS supplemented with DTPA (100 µM, pH 7.0) and fresh human plasma (50% v/v). Cells were activated by addition of phorbol myristate acetate (PMA, 200 nM) and incubated for 2 h (Complete System). The content of 9-H(P)ODE and 9-H(P)ETE formed within endogenous plasma lipids were then determined by LC/ESI/MS/MS. Where indicated, human MPO (30 nM) was added to reaction mixtures. Data represent the mean ±SD of triplicate determinations. Each bar within a cluster for a given condition represents results obtained from independent experiments performed with neutrophil preparations from a distinct donor. PMN(MPO+), neutrophils isolated from normal subjects; PMN(MPO-), neutrophils isolated from MPO-deficient subjects. • Figs. 5(A-B) are graphs showing the characterization of neutrophil-dependent initiation of lipid peroxidation of endogenous plasma lipids. Neutrophils (1×10^6/ml) isolated from normal subjects (PMN) were incubated at 37° C in HBSS supplemented with DTPA (100 µM, pH 7.0) and fresh human plasma (50% v/v). Cells were activated by addition of phorbol myristate acetate (PMA, 200 nM) and then incubated for 2 h (Complete System). The content of 9-H(P)ODE and 9-H(P)ETE formed within endogenous plasma lipids were then determined by LC/ESI/MS/MS. Additions or deletions to the Complete System were as indicated. The final concentrations of additions to the Complete System were 30 nM human MPO, 1 mM NaN3, 300 nM catalase (Cat), 300 nM heat inactivated-catalase (hiCat), 100 µM methionine (Met), 100 µM ascorbate and 10 µg/ml superoxide dismutase (SOD). […] The content of 9-H(P)ODE and 9-H(P)ETE formed within endogenous plasma lipids were then determined by LC/ESI/MS/MS. […] The contents of the indicated oxidized PC species were determined in native LDL and LDL oxidized by the MPO-H2O2-NO2 system (NO2-LDL) using LC/ESI/MS/MS. […]

[1] = system: oxidation products produced by myeloperoxidase and nitric oxide-derived oxidants; experiment: Prospective intervention study: plasma protein-bound tyrosine oxidation products at baseline and after 12 weeks of atorvastatin; type: in vivo, human
Procedure: The population consisted of a consecutive sample of patients recruited from the Preventive Cardiology Clinic at the Cleveland Clinic Foundation from June 2001 until January 2002 who were eligible and consented to participate in the study. Patients 21 years of age and older without clinical evidence of CAD and with low-density lipoprotein cholesterol (LDL-C) levels ≥ 130mg/dL, despite at least 6-8 weeks of therapeutic lifestyle interventions, were eligible to participate in the study. Briefly at initial screening, a detailed medical history was obtained, a thorough physical examination was performed, and a fasting lipoprotein profile was obtained. Patients potentially eligible for the study received counseling on nutritional and exercise interventions. If after 6-8 weeks LDL-C remained ≥130mg/dL, patients were eligible for enrollment in the study. […] Patient with active liver disease or renal insufficiency defined as serum creatine levels of 1.8 mg per deciliter or greater were excluded. […] All patients gave written informed consent, and the Institutional Review Board at the Cleveland Clinic Foundation approved the study protocol.
Blood samples were collected into serum separator tubes (Case-control study) or EDTA tubes (Intervention study) from overnight fasted patients. Samples were centrifuged at 3500 rpm for 10 minutes, plasma/serum recovered, and aliquots stored at -80°C until analysis. Personnel blinded to clinical data performed all laboratory measurements. Lipoprotein/lipid profiles and high sensitivity C-reactive protein (CRP) measurements were performed using CDC standardized assays.
Protein-bound nitrotyrosine levels were determined by stable isotope dilution liquid chromatography-electrospray ionization tandem mass spectrometry based methods using an ion trap mass spectrometer (LCQ Deca, ThermoFinigann, San Jose, CA). […] Nitrotyrosine content in samples is expressed as the mole ratio between nitrotyrosine and the precursor amino acid tyrosine. […]

[2] = system: MPO-generated markers of protein and lipid oxidation; experiment: Example 10: MPO-generated oxidation markers and hs-CRP after 12 weeks of atorvastatin (Figs. 14, 15); type: in vivo, human; details: baseline vs 12 weeks of atorvastatin 10 mg PO QHS
[3] = system: oxidation products produced by myeloperoxidase and nitric oxide-derived oxidants; experiment: Prospective intervention study: plasma protein-bound tyrosine oxidation products at baseline and after 12 weeks of atorvastatin; type: in vivo, human; remark: listed apart in the source
MPO = experiment: Example 15: plasma levels of MPO, statin therapy; type: in vivo, human; details: n=27
[4] = system: lipid levels and high-sensitivity CRP
Procedure: Wilcoxon rank-sum test was used to analyze the differences between measurements at baseline and 12 weeks. […] Approximate 95% confidence intervals were found using Fisher's r-to-z transform. Multiple regression analyses were performed to determine factors associated with changes in nitrotyrosine levels.
We performed a prospective, open-label study. The study cohort consisted of a consecutive sample of patients (n=35) recruited from the Preventive Cardiology Clinic at the Cleveland Clinic Foundation. Patients 21 years of age and older without clinical evidence of coronary artery disease and with LDL cholesterol (LDL-C) levels 130 mg per deciliter or greater, despite at least 6-8 weeks of therapeutic lifestyle interventions, were eligible to participate in the study. Briefly, at initial screening, a detailed medical history was obtained, a thorough physical examination was performed, and a fasting lipoprotein profile was obtained. Patients potentially eligible for the study received counseling on nutritional and exercise interventions. If after 6-8 weeks LDL-C remained above 130 mg/dL, patients were eligible for enrollment in the study. […] Fasting morning plasma samples were collected prior to initiation of therapy (baseline), and following 12 weeks of therapy. Patients with active liver disease or renal insufficiency defined as a serum creatinine level of 1.8 mg per deciliter or greater were excluded. […] All patients gave written informed consent, and the Institutional Review Board at the Cleveland Clinic Foundation approved the study protocol.
Blood samples were collected into EDTA tubes from fasting patients. Samples were centrifuged at 3500 rpm for 10 minutes at 4°C, and stored under conditions to minimize artificial oxidation (i.e., with antioxidant cocktail, under inert atmosphere). Briefly, plasma was removed and allocated into tubes containing butylated hydroxytoluene (100µM final) and diethylenetriaminepentaacetic acid (100µM final) overlaid with argon and stored at -80°C until analysis. Standard methods were used to measure lipid levels and high-sensitivity CRP.
Data are presented as mean ± SD, and significance level was set at p < 0.05. Wilcoxon rank-sum test was used to analyze the differences between NO2Tyr, diTyr, and CRP at baseline and 12 weeks, as they were not normally distributed.

[5] = system: MPO and multiple distinct oxidation products formed by MPO; experiment: Example 13: plasma MPO and oxidation products, ACEI therapy; type: in vivo, human; details: 16 weeks of lisinopril 20 mg PO QD, n=9
Procedure: Subjects (n=9) had plasma drawn at baseline, and then 16 weeks following therapy with lisinopril (Zestril, 20 mg PO QD). Plasma levels of MPO, protein-bound nitrotyrosine, chlorotyrosine, dityrosine, and 9-H(P)ETE and F2Isoprostantes were monitored.

[6] = system: MPO and multiple distinct oxidation products formed by MPO; experiment: Example 14: plasma MPO and oxidation products, ARB therapy; type: in vivo, human; details: 16 weeks of losartan 25 mg PO QD, n=16
Text: Angiotensin receptor blocking agents are a new therapy used for treatment of hypertension. They act upon the same biochemical axis as ACEI. Accordingly, they promote clinical benefits beyond those linked to blood pressure reduction - those related to presumed anti-inflammatory and antioxidant actions. However, no means for objectively monitoring these effects have been available. We hypothesized that monitoring levels of MPO and its oxidation products might serve as a way of quantifying the anti-inflammatory and antioxidant effects of ARBs. […] These studies underscore the potential utility of MPO and its oxidation products for monitoring systemic antioxidant and anti-inflammatory effects of therapeutic interventions.

human MPO = molecular target: T1, human MPO (Homo sapiens, UniProt P05164); experiment: MPO-dependent initiation of lipid peroxidation of endogenous plasma lipids (isolated MPO plus glucose/glucose oxidase); type: biochemical; details: 30 nM MPO, G/GO, 50% plasma, 12 h, 37° C; 1 mM NaN3, 300 nM catalase, 200 nM SOD, 100 µM methionine, 100 µM ascorbate
T1 construct: from tissue; host or cells: human leukocytes, for the MPO standard of the ELISA; the lipid peroxidation text only says 'isolated'/'purified' and cites the literature
Procedure: as §1, with “Neutrophils (1×10^6/ml) isolated from normal subjects (PMN) were incubated at 37° C in HBSS supplemented with DTPA (100 µM, pH 7.0) and fresh human plasma (50% v/v). Cells were activated by addition of phorbol myristate acetate (PMA, 200 nM) and then incubated for 2 h (Complete System).” left out, “LC/ESI/MS/MS.” for “LC/ESI/MS/MS. Additions or deletions to the Complete System were as indicated. The final concentrations of additions to the Complete System were 30 nM human MPO, 1 mM NaN3, 300 nM catalase (Cat), 300 nM heat inactivated-catalase (hiCat), 100 µM methionine (Met), 100 µM ascorbate and 10 µg/ml superoxide dismutase (SOD).”

[7] = baseline to 12 weeks, atorvastatin 10 mg per day, n = 35
[8] = plasma protein-bound, 12 Weeks of atorvastatin 10 mg orally per day, n = 35, mean ± SD
[9] = reduction, baseline to 12 weeks, atorvastatin 10 mg per day, given unsigned
[10] = n=35, LDL cholesterol ≥ 130mg/dL
[11] = reduction, baseline to 12 weeks, atorvastatin 10 mg per day, given unsigned, not significant
[12] = 12 Weeks of atorvastatin 10 mg orally per day, n = 35, mean ± SD

T1 sequence (P05164 279-745 limits assumed): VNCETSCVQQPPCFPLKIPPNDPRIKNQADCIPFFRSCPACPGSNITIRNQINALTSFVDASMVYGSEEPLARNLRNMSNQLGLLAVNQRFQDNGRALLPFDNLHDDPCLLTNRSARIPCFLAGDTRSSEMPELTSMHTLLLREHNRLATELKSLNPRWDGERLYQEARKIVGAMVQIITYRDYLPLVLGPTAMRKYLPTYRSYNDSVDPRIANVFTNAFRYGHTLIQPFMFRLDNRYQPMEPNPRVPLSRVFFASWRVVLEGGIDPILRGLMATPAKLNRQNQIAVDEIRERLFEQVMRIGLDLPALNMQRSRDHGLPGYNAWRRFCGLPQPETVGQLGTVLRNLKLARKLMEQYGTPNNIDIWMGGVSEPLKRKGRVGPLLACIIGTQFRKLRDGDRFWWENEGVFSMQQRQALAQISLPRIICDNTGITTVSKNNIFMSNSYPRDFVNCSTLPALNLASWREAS
T1 sequence (P05164 165-273 limits assumed): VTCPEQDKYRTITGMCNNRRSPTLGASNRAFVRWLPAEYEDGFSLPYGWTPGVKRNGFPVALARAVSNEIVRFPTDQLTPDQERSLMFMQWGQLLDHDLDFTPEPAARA

## O[C@H](CS)[C@H](O)CS (racemic) [dithiothreitol]
Human neutrophils
  neutrophil-dependent peroxidation of endogenous plasma lipids (9-H(P)ODE and 9-H(P)ETE): failed to attenuate

## CC(C)c1c(C(=O)Nc2ccccc2)c(-c2ccccc2)c(-c2ccc(F)cc2)n1CC[C@@H](O)C[C@@H](O)CC(=O)O [Atorvastatin, atorvastatin]
[1]; [7]
  Nitrotyrosine, absolute change: -4 µmol/mol tyrosine
[1]; [8]
  Nitrotyrosine: 11 ± 5 µmol/mol tyrosine
[1]; [9]
  Nitrotyrosine, % change: 25%
[2]; [10]
  reduction in dityrosine: 30%
  reduction in nitrotyrosine: 24%
[2]; n=35, failed to reach significance
  decrease in hs-CRP: 11%
[3]; [7]
  Chlorotyrosine, absolute change: -6 µmol/mol tyrosine
  Dityrosine, absolute change: -11 µmol/mol tyrosine
  ortho-tyrosine, absolute change: -8 µmol/mol tyrosine
[3]; [8]
  Chlorotyrosine: 13 ± 4 µmol/mol tyrosine
  Dityrosine: 23 ± 8 µmol/mol tyrosine
  ortho-tyrosine: 81 ± 40 µmol/mol tyrosine
[3]; [9]
  Chlorotyrosine, % change: 30%
  Dityrosine, % change: 32%
[3]; [11]
  ortho-tyrosine, % change: 9%
MPO; plasma, 16 weeks of Atorvastatin 10 mg PO QD
  MPO: 17.3 ± 4.8 ng/mL
MPO; reduction, baseline to 16 weeks of Atorvastatin 10 mg PO QD, given unsigned
  MPO, % change: 12.2%
[4]; [12]
  Apolipoprotein B-100: 96 ± 21 mg/dL
  C-reactive protein: 0.23 ± 0.33 mg/dL and 0.23 mg/dL
  Total cholesterol level: 190 ± 28 mg/dL
[4]; [7]
  Apolipoprotein B-100, absolute change: -39 mg/dL
  C-reactive protein, absolute change: -0.2 mg/dL
  Total cholesterol, absolute change: -63 mg/dL
  Triglycerides, absolute change: -14 mg/dL
[4]; fasting, 12 Weeks of atorvastatin 10 mg orally per day, n = 35, mean ± SD
  Triglycerides: 132 ± 81 mg/dL
[4]; [9]
  Apolipoprotein B-100, % change: 29%
  Total cholesterol, % change: 25%
[4]; [11]
  C-reactive protein, % change: 11%
  Triglycerides, % change: 10%

## NCCCC[C@H](N[C@@H](CCc1ccccc1)C(=O)O)C(=O)N1CCC[C@H]1C(=O)O [lisinopril]
[5]; plasma protein-bound
  Nitrotyrosine: 10.3 µmol/mol
[5]; plasma
  9-H(P)ETE: 0.21 mmol/mol
  Chlorotyrosine: 15.0 µmol/mol
  Dityrosine: 24.1 µmol/mol
  F2Isoprostane: 0.72 mmol/mol
  MPO: 8.8 ng/mL

## CCCCc1nc(Cl)c(CO)n1Cc1ccc(-c2ccccc2-c2nn[nH]n2)cc1 [losartan]
[6]; plasma protein-bound
  Nitrotyrosine: 8.1 umol/mol
[6]; plasma
  9-H(P)ETE: 0.27 mmol/mol
  Chlorotyrosine: 14.3 umol/mol
  Dityrosine: 28.5 umol/mol
  F2Isoprostane: 0.68 mmol/mol
  MPO: 9.9 ng/mL

## CSCC[C@H](N)C(=O)O [methionine]
Human neutrophils
  neutrophil-dependent peroxidation of endogenous plasma lipids (9-H(P)ODE and 9-H(P)ETE): failed to attenuate
Human MPO
  MPO-dependent lipid oxidation in plasma (9-H(P)ODE and 9-H(P)ETE): not affected

## azide
Human neutrophils
  neutrophil-dependent peroxidation of endogenous plasma lipids (9-H(P)ODE and 9-H(P)ETE): complete inhibition
Human MPO
  MPO-dependent lipid oxidation in plasma (9-H(P)ODE and 9-H(P)ETE): inhibited
